Like-named read-outs stand apart in the source and are kept apart here.
Experiments:
[1] = tested on: Rhopalosiphum padi (cereal aphid); assay: Activity against Rhopalosiphum padi (cereal aphid) on wheat, spray with safener cloquintocet, 6 days after application (Example B1); format: in vivo; conditions: 144 h
Experimental: One replicate consisted of 4 wheat plants per pot. […] 9 days after seeding all wheat plants (10replicates) were sprayed with respective test solutions. […] 6 days after application aphid mortality and phytotoxicity were evaluated. […] Additionally the average plant height per replicate was measured.

[2] = tested on: Nilaparvata lugens (brown plant hopper, BPH); assay: Activity against Nilaparvata lugens (brown plant hopper, BPH) on rice, spray with safeners, 7 d after application (Example B2); format: in vivo; conditions: 168 h
Experimental: Eight replicates (pots with rice plants) were sprayed with respective test solutions. Test solutions contained the formulated test compound and the safener cloquintocet and N-(2-methoxybenzoyl)-4-[(methylaminocarbonyl)amino]-benzenesulfonamide at different ratios. 4 pots were infested with plant hopper nymphs right after application. 7d after application BPH mortality and plant safety were evaluated. […] Assessment on plant safety was done by measuring the average plant height per replicate.

Row | SMILES | melting point | other results
1 | CCOC(=O)OC1=C(c2cc(C)ccc2C)C(=O)N(C)C12CCN(OC)CC2 [Compound P1.1] | 96 to 110 °C | 
2 | CCOC(=O)OC1=C(c2c(C)cc(C)cc2C)C(=O)N(CC)C12CCN(OC)CC2 [Compound P1.8] | 101 to 103 °C | 
3 | CCOC(=O)OC1=C(c2cc(C)c(C)cc2Br)C(=O)N(C)C12CCN(OC)CC2 [Compound P1.20] | 158 to 159 °C | 
4 | CCOC(=O)OC1=C(c2cc(C)c(C)cc2Cl)C(=O)N(C)C12CCN(OC)CC2 [Compound P1.22] | 149 to 150 °C | 
5 | CCOC(=O)OC1=C(c2c(C)cc(Cl)cc2C)C(=O)N(C)C12CCN(OC)CC2 [Compound P1.29] |  | mortality at 25 ppm ([1]; read-out: Efficacy (% mortality) against cereal aphids (Rhopalosiphum padi), test compound 25 ppm, adjuvant Mero 0.1% v/v, ratio AI:safener cell blank (no safener), wheat, 6 days after application, Abbott's formula): 97%; mortality at 25 ppm ([1]; read-out: Efficacy (% mortality) against cereal aphids (Rhopalosiphum padi), test compound 25 ppm, adjuvant Mero 0.1% v/v, safener cloquintocet, ratio AI:safener 1:1, wheat, 6 days after application, Abbott's formula): 96.6%; mortality at 25 ppm ([1]; read-out: Efficacy (% mortality) against cereal aphids (Rhopalosiphum padi), test compound 25 ppm, adjuvant Mero 0.1% v/v, safener cloquintocet, ratio AI:safener 1:2, wheat, 6 days after application, Abbott's formula): 96.9%; mortality at 12.5 ppm ([2]; read-out: % mortality, corr., 12.5 ppm AI, Cloquintocet, ratio AI:safener 0.9:1, 7 d after application): 98%; mortality at 12.5 ppm ([2]; read-out: % mortality, corr., 12.5 ppm AI, Safener 2, ratio AI:safener 0.9:1, 7 d after application): 65%; mortality at 25 ppm ([2]; read-out: % mortality, corr., 25 ppm AI, Cloquintocet, ratio AI:safener 1.9:1, 7 d after application): 100%; mortality at 25 ppm ([2]; read-out: % mortality, corr., 25 ppm AI, Safener 2, ratio AI:safener 1.9:1, 7 d after application): 95%; mortality at 50 ppm ([2]; read-out: % mortality, corr., 50 ppm AI, Safener 2, ratio AI:safener 1.25:1, 7 d after application): 100%; mortality at 100 ppm ([2]; read-out: % mortality, corr., 100 ppm AI, Safener 2, ratio AI:safener 7.5:1, 7 d after application): 100%; mortality at 200 ppm ([2]; read-out: % mortality, corr., 200 ppm AI, Safener 2, ratio AI:safener 15:1, 7 d after application): 100%
6 | COCON1C(=O)C(c2cc(C)ccc2C)=C(OC(=O)CC(C)(C)C)C12CCN(OC)CC2 [Compound P1ii.5] | 93 to 95 °C | 
7 | COCON1C(=O)C(c2cc(C)ccc2C)=C(OC)C12CCN(OC)CC2 [Compound P1ii.31] | 91 to 93 °C | 
8 | CCOC(=O)OC1=C(c2c(F)ccc(C)c2Cl)C(=O)N(OCOC)C12CCN(OC)CC2 [Compound P1ii.61] | 116 to 119 °C | 
9 | CCOC(=O)OC1=C(c2c(C)cc(Cl)cc2C)C(=O)N(OC)C12CCN(OC)CC2 [Compound P1ii.114] | 122 to 125 °C | 
10 | CON1CCC2(CC1)C(O)=C(c1cc(C)ccc1C)C(=O)N2C [Compound P2.1] | 121 to 123 °C | 
11 | CON1CCC2(CC1)C(O)=C(c1c(C)cc(C)cc1C)C(=O)N2CC1CC1 [Compound P2.8, 1-Cyclopropylmethyl-4-hydroxy-8-methoxy-3-(2,4,6-trimethyl-phenyl)-1,8-diaza-spiro[4.5]dec-3-en-2-one] | 223 to 225 °C | 
12 | CCN1C(=O)C(c2c(C)cc(C)cc2C)=C(O)C12CCN(OC)CC2 [Compound P2.11] | 218 to 221 °C | 
13 | CON1CCC2(CC1)C(O)=C(c1cc(C)c(C)cc1Br)C(=O)N2C [Compound P2.23] | 191 to 193 °C | 
14 | CON1CCC2(CC1)C(O)=C(c1cc(C)c(C)cc1C)C(=O)N2C [Compound P2.25] | 183 to 186 °C | 
15 | CON1CCC2(CC1)C(O)=C(c1cc(C)c(C)cc1Cl)C(=O)N2C [Compound P2.26, 3-(2-Chloro-4,5-dimethyl-phenyl)-4-hydroxy-8-methoxy-1-methyl-1,8-diaza-spiro[4.5]dec-3-en-2-one] | 191 to 192 °C | 
16 | CON1CCC2(CC1)C(O)=C(c1cc(Br)c(C)cc1C)C(=O)N2C [Compound P2.28] | 182 to 183 °C | 
17 | COCON1C(=O)C(c2c(C)cc(-c3ccc(Cl)cc3)cc2C)=C(O)C12CCN(OC)CC2 [Compound P2ii.15, 3-(4′-Chloro-3,5-dimethyl-biphenyl-4-yl)-4-hydroxy-8-methoxy-1-methoxymethoxy-1,8-diaza-spiro[4.5]dec-3-en-2-one] | 128 °C (dec.) | 
18 | CON1CCC2(CC1)C(O)=C(c1c(C)cc(C)cc1C)C(=O)N2OCCOC1CCCCO1 (stereo not shown) [Compound P2ii.22] | 135 to 137 °C | 
19 | COCON1C(=O)C(c2c(F)ccc(C)c2Cl)=C(O)C12CCN(OC)CC2 [Compound P2ii.60] | 155 to 158 °C | 
20 | COCCON1C(=O)C(c2cc(Br)c(C)cc2C)=C(O)C12CCN(OC)CC2 [Compound P2ii.73] | 63 to 64 °C | 
21 | CON1CCC2(CC1)C(O)=C(c1cc(Br)c(C)cc1C)C(=O)N2OC [Compound P2ii.75] | 86 to 87 °C | 
22 | COCCON1C(=O)C(c2cc(Br)c(F)cc2C)=C(O)C12CCN(OC)CC2 [Compound P2ii.87] | 71 to 74 °C | 
23 | COCON1C(=O)C(c2cc(Br)c(F)cc2C)=C(O)C12CCN(OC)CC2 [Compound P2ii.89] | 64 to 67 °C | 
24 | CON1CCC2(CC1)C(O)=C(c1c(C)cc(C)cc1C)C(=O)N2OCC1CCCCC1 [Compound P2ii.96] | 169 to 172 °C | 
25 | COCCON1C(=O)C(c2c(C)cc(Cl)cc2C)=C(O)C12CCN(OC)CC2 [Compound P2ii.101] | 161 to 164 °C | 
26 | CON1CCC2(CC1)C(O)=C(c1c(C)cc(Cl)cc1C)C(=O)N2OC [Compound P2ii.102] | 88 to 92 °C | 
27 | COCON1C(=O)C(c2c(C)cc(Cl)cc2C)=C(O)C12CCN(OC)CC2 [Compound P2ii.104] | 176 to 178 °C | 
28 | CON1CCC2(CC1)C(O)=C(c1c(C)cc(Cl)cc1C)C(=O)N2OC1CCCO1 (stereo not shown) [Compound P2ii.105] | 137 to 139 °C | 

Source: patent US9462808B2, “Pesticidal compositions” (Syngenta Participants AG, priority 2010, dated 2016)
